Publication PMC3242641 (European journal of medicinal chemistry, 2011)

Experiments:
HIV-1 = type: cell-based
wild-type HBV = assay: Anti-HBV activity, HepG2 AD38 system; type: cell-based; conditions: read-out: Anti-HBV activity EC50
PBM cells [1] = test system: PBM cells
WT HIV-1 RT [2] = biological target: T1, WT HIV-1 RT (Human immunodeficiency virus type 1 group M subtype B, UniProt P04585); type: biochemical
human PBM cells = conditions: 4 h at 50 μM, PHA activated human PBM cells, 37 °C
PBM cells [3] = assay: Cytotoxicity in PBM cells; conditions: cell type not named in the sentence (PBM, CEM and Vero were tested)
WT HIV-1 RT [4] = biological target: T1, WT HIV-1 RT; conditions: read-out: K, dNTP; cited from earlier work

9-(3-Azido-2,3-dideoxy-β-L-ribofuranosyl)-2-fluoro-6-aminopurine [Compound 26]
EC90 (HIV-1; read-out: Anti-HIV activity EC90): > 100 µM
EC50 (wild-type HBV): > 100 µM
IC50 (PBM cells [1]): > 100 µM
IC50 (CEM cells): > 100 µM
IC50 (Vero cells): > 100 µM

Nc1ccn([C@@H]2CS[C@H](COP(=O)(O)OP(=O)(O)OP(=O)(O)O)O2)c(=O)n1 [Compound 3TC-TP]
Incorporation, fold better than the L-3′-azido-ddNTPs (WT HIV-1 RT [2]): 12-500 fold

[N-]=[N+]=N[C@@H]1C[C@@H](n2cnc3c(Cl)ncnc32)O[C@H]1CO [Compound 7, 9-(3-Azido-2,3-dideoxy-β-L-ribofuranosyl)-6-chloro-9H-purine]
Amount of intracellular nucleoside triphosphate (TP) detected (human PBM cells): no detectable TPs

COc1ncnc2c1ncn2[C@@H]1C[C@@H](N=[N+]=[N-])[C@H](CO)O1 [Compound 9, 9-(3-Azido-2,3-dideoxy-β-L-ribofuranosyl)-6-methoxyl-9H-purine]
Amount of intracellular nucleoside triphosphate (TP) detected (human PBM cells): below the level of detection

CCOC(=O)[C@H](C)NP(=O)(OC[C@@H]1O[C@H](n2cnc3c(N)ncnc32)C[C@H]1N=[N+]=[N-])Oc1ccccc1 (stereo partly drawn) [Compound 11, 3′-Azido-2′, 3′-dideoxy-β-L-adenosine-5′-O-[phenyl-(ethoxy-L-alaninyl)]-phosphate]
Increase in anti-HIV activity versus 10 (HIV-1): 45 fold

CNc1ncnc2c1ncn2[C@@H]1C[C@@H](N=[N+]=[N-])[C@H](CO)O1 [Compound 12, 9-(3-Azido-2,3-dideoxy-β-L-ribofuranosyl)-6-methylamino-9H-purine]
Amount of intracellular nucleoside triphosphate (TP) detected (human PBM cells): below the level of detection

CCOC(=O)[C@H](C)NP(=O)(OC[C@@H]1O[C@H](n2cnc3c(O)nc(N)nc32)C[C@H]1N=[N+]=[N-])Oc1ccccc1 (stereo partly drawn) [Compound 16, 3′-Azido-2′, 3′-dideoxy-β-L-guanosine-5′-O-[phenyl-(ethoxy-L-alaninyl)]-phosphate]
Anti-HIV-1 activity, in words (HIV-1): inactive

[N-]=[N+]=N[C@@H]1C[C@@H](n2cnc3c(Cl)nc(N)nc32)O[C@H]1CO [Compound 17, 9-(3-Azido-2,3-dideoxy-β-L-ribofuranosyl)-2-amino-6-chloropurine]
Amount of intracellular nucleoside triphosphate (TP) detected (human PBM cells): no detectable TPs

CCOC(=O)[C@H](C)NP(=O)(OC[C@@H]1O[C@H](n2cnc3c(Cl)nc(N)nc32)C[C@H]1N=[N+]=[N-])Oc1ccccc1 (stereo partly drawn) [Compound 18, 9-(3-Azido-2,3-dideoxy-β-L-ribofuranosyl)-2-amino-6-chloropurine-5-O-[phenyl-(ethoxy-L-alaninyl)]-phosphate]
Amount of intracellular intact prodrug detected (human PBM cells): 12 fmol/10^6 cells

CCOC(=O)[C@H](C)NP(=O)(OC[C@@H]1O[C@H](n2cnc3c(N)nc(N)nc32)C[C@H]1N=[N+]=[N-])Oc1ccccc1 (stereo partly drawn) [Compound 22, 9-(3-Azido-2,3-dideoxy-β-L-ribofuranosyl) -2,6-diaminopurine-5-O-(phenyl-[ethoxyl-L-alaninyl])-phosphate]
Observed toxicity (no toxicity up to) (PBM cells [3]): > 100 µM

Cc1cn([C@H]2C[C@H](N=[N+]=[N-])[C@@H](CO)O2)c(=O)[nH]c1=O [Compound 27, 3′-Azido-2′-3′-dideoxy-β-L-thymidine]
Anti-HIV-1 activity, in words (HIV-1): inactive

CCOC(=O)[C@H](C)NP(=O)(OC[C@@H]1O[C@H](n2cc(C)c(=O)[nH]c2=O)C[C@H]1N=[N+]=[N-])Oc1ccccc1 (stereo partly drawn) [Compound 28, 1-(3′-Azido-2′, 3′-dideoxy-β-L-thymidine)-O-(phenyl-[ethoxyl-L-alaniny])-phosphate]
Anti-HIV-1 activity, in words (HIV-1): inactive

Nc1ccn([C@H]2C[C@H](O)[C@@H](COP(=O)(O)OP(=O)(O)OP(=O)(O)O)O2)c(=O)n1 [dCTP]
Kd (WT HIV-1 RT [4]): 1.1 ± 0.4 µM
